Measured values taken from patent US10875861B1, “Therapeutic compounds” (Rutgers, The State University of New Jersey, priority 2017, dated 2020).
Structures can show the parent of a compound that is named as a salt.

Legend:
BMI-1 and αENaC mRNA = test: mRNA expression of BMI-1 and αENaC on concomitant treatment with cyclohexamide; format: cell-based; details: RU-A15 100 nM, RU-A16 200 nM, concomitant with CHX
Experimental: Next, to test if Examples 3 and 4 are selective for BMI-1 RNA, cells were concomitantly treated with RU-A15/16 (100 nM, 200 nM, respectively) and cyclohexamide (CHX), a general translational inhibitor, and analyzed mRNA expression of BMI-1 and the CHX-specific target epithelial sodium channel (αENaC).

BMI-1 5'UTR = test: Luciferase plasmid containing the BMI-1 5'UTR with or without binding pocket; format: cell-based
Experimental: Since translation initiation is dependent on RNA folding, the 3D folding of the BMI-1 5′UTR was examined. To identify sequences that fold into a target minimum and maximum free energy (MFE) secondary structure, inverse RNA folding of the BMI-1 5′UTR was performed using the mFold server. A highly probable, probability annotated group of secondary structures were identified, starting with the MFE, centroid energy structures and including fourteen other probabilities. […] In a luciferase plasmid containing the BMI-1 5′UTR, the sequences of the pocket region that contains the potential binding site was removed by cutting with compatible restriction enzymes and re-ligating the plasmid. The luciferase activity was examined with the luc plasmids or without the binding pocket upon treatment with the inhibitors. […] Thus, RU-A15/A16 engages with the BMI-1 UTR regulatory mechanisms.

[1] = test system: BMI-1 and ubiquitinated histone H2A in primary glioblastoma cells; test: Modulation / dynamics of BMI-1 and downstream targets in GBM cells (Western blotting); format: cell-based, human
Experimental: Different GBM cells were treated with DMSO or different concentrations of the B compounds for 72 hours. Cells were lysed in Cell Lysis Buffer (Cell Signaling, #9803) supplemented with Protease Inhibitor Cocktail (Sigma, #P8340), spun down for 30 minutes at 4° C., after which the supernatant was collected at every time point indicated. Western blotting analysis was performed on all samples as described above. BMI-1 loss started at 6-12 h, coinciding with an upper shift and hyper-phosphorylation of BMI-1 at 12-24 h and complete depletion at 72 h.
To study the compound dynamic activity against GBM spheres, GBMs were tested with exemplary compounds. Different GBM cells were treated with DMSO or different concentrations of the inhibitors for 72 hours. Cells were lysed in Cell Lysis Buffer (Cell Signaling, #9803) supplemented with Protease Inhibitor Cocktail (Sigma, #P8340), spun down for 30 minutes at 4° C., after which the supernatant was collected at every time point indicated. Western blotting analysis was performed on all samples as described above. […] BMI-1 loss started at 6-12 h, coinciding with an upper shift and hyper-phosphorylation of BMI-1 at 12-24 h and complete depletion at 72 h. […] This is expected since BMI-1 is known to suppress p21. BMI-1 inhibition could be reversed using phosphatase treatment, moreover, when proteasomal inhibitor is added to treated cells after 24 h, BMI-1 is locked in the phosphorylated state, therefore showing that the phosphorylation event precedes BMI-1 degradation. The phosphorylation was independent of p38 kinase activation, as when we added […], the p38 inhibitor to the cultured cells upon treatment with the BMI-1 inhibitor, the combined treatment could not reverse the effects of RU-A15 on BMI-1 inhibition.

[2] = test system: glioblastoma cancer cell line; test: MTT viability assay with glioblastoma cancer cell line (Test A); format: cell-based, human; details: for EC50: Homo sapiens, 72 hours
From the text: To generate primary patient-derived GBM models for testing small molecule inhibitors, fresh primary tissues were received from patients undergoing surgical resection of WHO grade IV gliomas at Robert Wood Johnson University Hospital (RWJUH) under an approved IRB protocol. De-identified primary human GBM samples were delivered to the laboratory. Cells were obtained through mechanical dissociation of the tumor tissue using a blade and plated in DMEM/F12 medium (Gibco) in the presence of B-27 Supplement (Gibco, #17504-044), 20 ng/ml of human recombinant EGF (Gibco, #PHG0311L) and human recombinant FGF (Peprotech, #AF-100-18B). The following day, the culture was collected, incubated with Accutase (Gibco, #A11105-01) at 37° C. and passed through a 26G×⅜ needle (BD Precision Glide, #305110) to obtain a single cell suspension and re-plated in the same supplemented medium. Cells were cultured at low (5-6) passages in serum-free sphere 3D culture with mitogens that preserve the clonogenic stemness phenotype. […] different primary GBM cells (GBM #46, GBM #50, and GBM #76) were tested for cell viability after treatment with the inhibitors. Cell viability was measured using MTT assay. Briefly, one thousand cells per well were seeded in 96-well plates and exposed to drug in a total of 200 uL media. After 72 hours, 50 uL of stock concentration of 2.5 mg/mL 3-(4,5-dimethylthiazol-2-yl)-2,5-diphenyltetrazolium bromide (MTT) (Sigma, #M2128) dissolved in PBS was added to wells and incubated at 37° C. for 4 hours; read in a […] plate reader at 570 nm and compared to DMSO and untreated cells. The IC50 (defined as the concentration at which 50% of the cells were viable) was determined from the curve.
Accordingly, compounds of the invention may be useful as therapeutic agents for the treatment of cancer.
To generate primary patient-derived GBM models for testing small molecule inhibitors, fresh primary tissues were received from patients undergoing surgical resection of WHO grade IV gliomas at Robert Wood Johnson University Hospital (RWJUH) under an approved RB protocol. De-identified primary human GBM samples were delivered to the laboratory. Cells were obtained through mechanical dissociation of the tumor tissue using a blade and plated in DMEM/F12 medium (Gibco) in the presence of B-27 Supplement (Gibco, #17504-044), 20 ng/ml of human recombinant EGF (Gibco, #PHG0311L) and human recombinant FGF (Peprotech, #AF-100-18B). […] Cell viability was measured using MTT assay. […] After 72 hours, 50 uL of stock concentration of 2.5 mg/mL 3-(4,5-dimethylthiazol-2-yl)-2,5-diphenyltetrazolium bromide (MTT) (Sigma, #M2128) dissolved in PBS was added to wells and incubated at 37° C. for 4 hours; read in a […] plate reader at 570 nm and compared to DMSO and untreated cells. […]

U87 glioblastoma cells = test: Comparison of Example 3 and PTC-209 in U87 glioblastoma cells (cell viability); format: cell-based; details: 72 hours
From the text: BMI-1 inhibitors were developed by the Molecular Design and Synthesis laboratory, Rutgers Translational Sciences at Rutgers University, NJ, USA. […] (Generic name is PTC-209) was characterized among a screen for post-transcriptional inhibitors of BMI-1. Zebrafish embryo toxicology assays were used to select RU-A compounds with no embryonic toxicity in vivo (a surrogate assay for toxic effects on normal stem cells). […] Cells were counted using Beckman Coulter Vi-CELL Cell Viability Analyzer, and cell viability was confirmed by CellTiter-Glo Luminescent Cell Viability Assay (Promega, Madison, Wis., USA) according to standard protocols and analyzed with a Victor 2 plate reader (Wallac, Turku, Finland).

[3] = primary glioblastoma cells, Western blotting

With `C[C@@H]1C[C@@H]([C@H](O)CC2CC(=O)NC(=O)C2)C(=O)[C@@H](C)C1` [CHX, cyclohexamide, reference compound] the “BMI-1 mRNA expression” value (BMI-1 and αENaC mRNA) was “lowered mRNA levels” and the “αENaC mRNA expression” value (BMI-1 and αENaC mRNA) was “lowered mRNA levels”.

In the case of `Cc1nc2ccccn2c1-c1csc(Nc2ccc3c(c2)OCO3)n1` [Example 4, N-(benzo[d][1,3]dioxol-5-yl)-4-(2-methylimidazo[1,2-a]pyridin-3-yl)thiazol-2-amine hydrobromide], the “normalized luc, BMI-1 5'UTR with intact binding pocket” value (BMI-1 5'UTR; intact minor groove potential binding pocket) is reported as “significantly reduced normalized luc”, the “normalized luc, binding pocket sequences removed” value (BMI-1 5'UTR; pocket sequences removed) is reported as “not when the pocket sequences were removed” and the “BMI-1 mRNA expression” value (BMI-1 and αENaC mRNA) is reported as “did not inhibit”. For the same compound, the “αENaC mRNA expression” value (BMI-1 and αENaC mRNA) was “did not inhibit”, the “CDK inhibitor p21” value ([1]; GBM#46 and #50) was “induced upregulation of the CDK inhibitor p21” and the BMI-1 protein levels [1, 3] was “inhibit BMI-1”. For the same compound, the “WT p53 levels” value [1, 3] was “increase WT p53 levels” and the “ubiquitin H2A” value [1, 3] was “inhibit ubiquitin H2A”.

In the case of `Cc1c(-c2csc(Nc3ccc(N(C)C)cc3)n2)nc2ncccn12` [Example B2, N^1,N^1-dimethyl-N^4-(4-(3-methylimidazo[1,2-a]pyrimidin-2-yl)thiazol-2-yl)benzene-1,4-diamine], the EC50 [2] is reported as 1 µM and the “modulation of ubiquitinated histone H2A (Test B)” value ([1]; GBM cells, B compounds, 72 hours) is reported as “modulation of downstream target ubiquitinated histone H2A”.

`COc1ccc(Nc2nc(-c3nc4ccccn4c3C)cs2)cc1` [Example B3, N-(4-methoxyphenyl)-4-(3-methylimidazo[1,2-a]pyridin-2-yl)thiazol-2-amine] was tested, and the EC50 [2] was 20 µM.

`Cc1c(-c2csc(Nc3ccc(N(C)C)cc3)n2)nc2ccccn12` [Example B4, N^1,N^1-dimethyl-N^4-(4-(3-methylimidazo[1,2-a]pyridin-2-yl)thiazol-2-yl)benzene-1,4-diamine] was tested, and the EC80 ([2]; cell marked (EC80) in the EC50 column) was 20 (EC80) μM.

`COc1cc(Br)c(Nc2nc(-c3c(C)nc4ncccn34)cs2)c(Br)c1` [PTC-209, reference compound] showed an IC50 (U87 glioblastoma cells) of 10 µM.
